Experimental data as given in PubChem BioAssay (NCI).
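At the GI50, growth is halved. TGI marks complete inhibition of growth.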

Key:
Assay in all cases: NCI-60 cell line screen, 384-well format
[1] = test system: 786-0 renal
[2] = test system: A498 renal
[3] = test system: A549 NSCLC
[4] = test system: ACHN renal
[5] = test system: BT-549 breast
[6] = test system: CAKI-1 renal
[7] = test system: CCRF-CEM leukemia
[8] = test system: COLO 205 colon
[9] = test system: DU-145 prostate
[10] = test system: EKVX NSCLC
[11] = test system: HCC-2998 colon
[12] = test system: HCT-116 colon
[13] = test system: HCT-15 colon
[14] = test system: HL-60(TB) leukemia
[15] = test system: HOP-62 NSCLC
[16] = test system: HOP-92 NSCLC
[17] = test system: HS 578T breast
[18] = test system: HT29 colon
[19] = test system: IGROV1 ovarian
[20] = test system: K-562 leukemia
[21] = test system: KM12 colon
[22] = test system: LOX IMVI melanoma
[23] = test system: M14 melanoma
[24] = test system: MALME-3M melanoma
[25] = test system: MCF7 breast
[26] = test system: MDA-MB-231 breast
[27] = test system: MDA-MB-435 melanoma
[28] = test system: MOLT-4 leukemia
[29] = test system: NCI-H226 lung
[30] = test system: NCI-H23 lung
[31] = test system: NCI-H322M lung
[32] = test system: NCI-H460 NSCLC
[33] = test system: NCI-H522 lung
[34] = test system: NCI/ADR-RES ovarian
[35] = test system: OVCAR-3 ovarian
[36] = test system: OVCAR-4 ovarian
[37] = test system: OVCAR-5 ovarian
[38] = test system: OVCAR-8 ovarian
[39] = test system: PC-3 prostate
[40] = test system: RPMI-8226 leukemia
[41] = test system: RXF 393 renal
[42] = test system: SF-295 CNS
[43] = test system: SK-MEL-28 melanoma
[44] = test system: SK-MEL-5 melanoma
[45] = test system: SK-OV-3 ovarian
[46] = test system: SN12C renal
[47] = test system: SNB-19 CNS
[48] = test system: SNB-75 CNS
[49] = test system: T-47D breast
[50] = test system: TK-10 renal
[51] = test system: UACC-257 melanoma
[52] = test system: UACC-62 melanoma
[53] = test system: UO-31 renal

COc1cc(S(C)(=O)=O)ccc1Nc1nc2ccc(-c3ccc(NC(=O)[C@H](C)c4ccc(F)cc4)cc3)cn2n1
GI50 [1]: 1.73 µM | TGI [1]: > 100 µM | GI50 [2]: > 100 µM | TGI [2]: > 100 µM | GI50 [3]: 0.0517 µM | TGI [3]: > 100 µM | GI50 [4]: > 100 µM | TGI [4]: > 100 µM | GI50 [5]: 32.5 µM | TGI [5]: > 100 µM | GI50 [6]: > 100 µM | TGI [6]: > 100 µM | GI50 [7]: 0.0293 µM | TGI [7]: 0.0694 µM | GI50 [8]: 0.0428 µM | TGI [8]: > 100 µM | GI50 [9]: 5.41 µM | TGI [9]: > 100 µM | GI50 [10]: > 100 µM | TGI [10]: > 100 µM | GI50 [11]: > 100 µM | TGI [11]: > 100 µM | GI50 [12]: 0.0642 µM | TGI [12]: > 100 µM | GI50 [13]: 0.0587 µM | TGI [13]: > 100 µM | GI50 [14]: 0.0454 µM | TGI [14]: > 100 µM | GI50 [15]: 0.0771 µM | TGI [15]: > 100 µM | GI50 [16]: 42.1 µM | TGI [16]: > 100 µM | GI50 [17]: 17.4 µM | TGI [17]: > 100 µM | GI50 [18]: 0.602 µM | TGI [18]: > 100 µM | GI50 [19]: > 100 µM | TGI [19]: > 100 µM | GI50 [20]: 0.777 µM | TGI [20]: > 100 µM | GI50 [21]: 61.7 µM | TGI [21]: > 100 µM | GI50 [22]: 0.053 µM | TGI [22]: > 100 µM | GI50 [23]: > 100 µM | TGI [23]: > 100 µM | GI50 [24]: 58.2 µM | TGI [24]: > 100 µM | GI50 [25]: 4.61 µM | TGI [25]: > 100 µM | GI50 [26]: > 100 µM | TGI [26]: > 100 µM | GI50 [27]: > 100 µM | TGI [27]: > 100 µM | GI50 [28]: 0.0201 µM | TGI [28]: 0.0417 µM | GI50 [29]: > 100 µM | TGI [29]: > 100 µM | GI50 [30]: > 100 µM | TGI [30]: > 100 µM | GI50 [31]: > 100 µM | TGI [31]: > 100 µM | GI50 [32]: 0.0406 µM | TGI [32]: > 100 µM | GI50 [33]: > 100 µM | TGI [33]: > 100 µM | GI50 [34]: 1.4 µM | TGI [34]: > 100 µM | GI50 [35]: > 100 µM | TGI [35]: > 100 µM | GI50 [36]: > 100 µM | TGI [36]: > 100 µM | GI50 [37]: > 100 µM | TGI [37]: > 100 µM | GI50 [38]: 1.19 µM | TGI [38]: > 100 µM | GI50 [39]: 69 µM | TGI [39]: > 100 µM | GI50 [40]: 0.137 µM | TGI [40]: > 100 µM | GI50 [41]: 0.0742 µM | TGI [41]: 6.48 µM | GI50 [42]: > 100 µM | TGI [42]: > 100 µM | GI50 [43]: > 100 µM | TGI [43]: > 100 µM | GI50 [44]: 1.54 µM | TGI [44]: > 100 µM | GI50 [45]: > 100 µM | TGI [45]: > 100 µM | GI50 [46]: > 100 µM | TGI [46]: > 100 µM | GI50 [47]: > 100 µM | TGI [47]: > 100 µM | GI50 [48]: 75.9 µM | TGI [48]: > 100 µM | GI50 [49]: 4.78 µM | TGI [49]: > 100 µM | GI50 [50]: > 100 µM | TGI [50]: > 100 µM | GI50 [51]: > 100 µM | TGI [51]: > 100 µM | GI50 [52]: > 100 µM | TGI [52]: > 100 µM | GI50 [53]: 22.4 µM | TGI [53]: > 100 µM
